Laboratory results from a melting point compilation (Tetko et al.; mined from patent text by program, amines drawn as free bases though some values may be those of a salt).

Question: For `CN1C(=O)CCC2(C)c3ccc(-c4ccccc4)cc3CCC12` (single isomer, unassigned; (+)), which melting point is on record?
Answer: The melting point was 155 °C.

Question: Which melting point does the source give for `CCN(C(=O)Nc1ccc(OC(F)(F)F)cc1)C1Cc2ccc(SC(C)(C)C(=O)O)cc2C1` (stereo not given) here?
Answer: The melting point was 73 to 77 °C.

Question: Which melting point does the source give for `O=[N+]([O-])c1cccc(CN2CCC(c3cc(-c4ccc(Cl)cc4)[nH]n3)CC2)c1` here?
Answer: Its melting point is 174 to 176 °C.

Question: With `CC(C)Oc1cc(CC(=O)O)c(F)cc1Cl` as the compound, how does the melting point read?
Answer: The melting point was 57 to 58 °C.

Question: With `COC(=O)c1ccc2c(c1)ncn2N` as the compound, how does the melting point read?
Answer: The melting point was 194 to 195 °C.

Question: Which melting point does the source give for `COc1ccc(Cn2c(=O)c3cccnc3n(CCCCl)c2=O)cc1` here?
Answer: The melting point was 114 to 115 °C.

Question: Which melting point does the source give for `O=CC(=C(Cl)c1ccc2c(c1)OCO2)c1ccc2c(c1)OCO2` here?
Answer: Its melting point is 167 to 168 °C.

Question: For `Cc1c(SCc2ccc(-c3ccccc3)cc2)cnn(C(C)(C)C)c1=O`, which melting point is on record?
Answer: The melting point was 112 to 115 °C.

Question: With `O=C1C=C(Nc2ccc(F)cc2)CCN1` as the compound, how does the melting point read?
Answer: The melting point was 195 to 198 °C.

Question: With `O=C1Nc2cc(Cl)cc(Cl)c2C1c1cc(Cl)ccc1O` (stereo not given) as the compound, how does the melting point read?
Answer: The melting point was 238 to 240 °C.

Question: With `CC1Sc2nccn2C1(C)C(O)C=Cc1ccco1` (stereo not given) as the compound, how does the melting point read?
Answer: Its melting point is 149 to 150 °C.

Question: Which melting point does the source give for `Cc1ncnn1-c1ccc(N)cc1F` here?
Answer: The melting point was 106 to 108 °C.

Question: Which melting point does the source give for `CC(CN1C(=O)c2ccccc2C1=O)c1c[nH]c2ccc(C#N)cc12` (stereo not given) here?
Answer: The melting point was 218 to 220 °C.

Question: With `Cc1sc(NC(=O)OC(C)(C)C)c(NC(=O)OC(C)(C)C)c1C#N` as the compound, how does the melting point read?
Answer: Its melting point is greater than 300 °C.

Question: For `Cc1oc(-c2ccc(Cl)cc2)nc1COc1cccc(/C=C/C(C)n2oc(=O)[nH]c2=O)c1` (stereo not given), which melting point is on record?
Answer: Its melting point is 172 to 174 °C.

Question: For `Cn1c(=O)nc(N)c2ccccc21`, which melting point is on record?
Answer: The melting point was 252 to 262 °C.

Question: With `Cc1cn([C@H]2C=C[C@@H](O)C2)c(=O)[nH]c1=O` (racemic) as the compound, how does the melting point read?
Answer: The melting point was 191 to 192 °C.

Question: With `CCC(CC)c1ccc(Cl)c2nc3n(c12)CCN3c1ccc(Br)cc1Cl` as the compound, how does the melting point read?
Answer: Its melting point is 165 to 168 °C.

Question: Which melting point does the source give for `COC(=O)c1nc(-c2ccc(Br)c(OC)c2F)cc(NC(C)=O)c1Cl` here?
Answer: The melting point was 164 to 165 °C.

Question: For `CC(C)(C)CNc1nc(Cl)cc(Cl)n1`, which melting point is on record?
Answer: The melting point was 63 to 66 °C.

Question: Which melting point does the source give for `Cc1nc2cc(-c3cccc(C=C4SC(=O)NC4=O)c3)cc(C34CC5CC(CC(C5)C3)C4)c2o1` here?
Answer: Its melting point is 355 to 358 °C.

Question: With `O=C(O)C1=Cc2cc(Cl)c(Sc3ccccc3)cc2OC1C(F)(F)F` (stereo not given) as the compound, how does the melting point read?
Answer: The melting point was 272 to 274 °C.

Question: With `CCOc1ccc2cc(-c3nc(C(C)(C)C)[nH]c3-c3ccncc3)ccc2c1` as the compound, how does the melting point read?
Answer: Its melting point is 258 to 259 °C.

Question: For `O=c1oc(=O)n(CC2CC2)c2ccccc12`, which melting point is on record?
Answer: The melting point was 118 to 121 °C.

Question: For `Cc1ccc2nc(NCCCO)ccc2c1NC(=O)CC12CC3CC(CC(C3)C1)C2`, which melting point is on record?
Answer: Its melting point is 168 to 174 °C.

Question: For `COc1ccc(-n2nc3c(cc2=O)CCSc2sc(C)cc2-3)cc1`, which melting point is on record?
Answer: The melting point was 145 to 146 °C.

Question: With `CC(=O)OC[C@@H](C)[C@H]1CC[C@H]2[C@@H]3C=CC4=CC(=O)C=C[C@]4(C)[C@H]3CC[C@]12C` as the compound, how does the melting point read?
Answer: Its melting point is 90 to 93 °C.

Question: With `CC(=O)OC1CSC(Oc2cncc(-c3ccc(OC(C)C)cc3)c2)C(OC(C)=O)C1OC(C)=O` (stereo not given) as the compound, how does the melting point read?
Answer: Its melting point is 135 °C.

Question: With `CNC(=C[N+](=O)[O-])N(C)Cc1ccc(Cl)nc1` as the compound, how does the melting point read?
Answer: Its melting point is 103 to 104 °C.

Question: Which melting point does the source give for `CONC(c1ccccc1)c1cc(C(C)(C)C)c(O)c(C(C)(C)C)c1` (stereo not given) here?
Answer: Its melting point is 135 to 137 °C.

Question: Which melting point does the source give for `O=C(O)CC(NC(=O)OCc1ccccc1)C(=O)CON1C(=O)Cc2ccccc21` (stereo not given) here?
Answer: The melting point was 58 to 70 °C.

Question: For `CC(C)(C)Sc1c(CC(C)(C)C(=O)O)n(Cc2ccc(Cl)cc2)c2ccc(Oc3ccccn3)cc12`, which melting point is on record?
Answer: Its melting point is 206 to 207 °C.

Question: With `CC(C)Oc1ccc2c(c1)OC(C(F)(F)F)C(C(=O)O)=C2` (stereo not given) as the compound, how does the melting point read?
Answer: The melting point was 161 to 163 °C.

Question: Which melting point does the source give for `CCN(C=Nc1ccc2c(c1)nc(N(C)C)c1cc(N=CN(CC)CC)ccc12)CC` here?
Answer: Its melting point is 124 to 126 °C.

Question: With `COC(=O)c1cccc(OCCC(C#N)NC(=O)C(Cc2cccc(C)c2)NC(=O)C(c2ccccc2)c2ccccc2)c1` (stereo not given) as the compound, how does the melting point read?
Answer: Its melting point is 152 to 153 °C.

Question: With `S=C(Cc1ccc(Cl)cc1)N1CCCCC1` as the compound, how does the melting point read?
Answer: The melting point was 82.5 to 83.5 °C.

Question: With `CCNc1nc(-n2cc(C(=O)O)c(=O)c3cc(F)c(F)c(Cl)c32)c(F)cc1F` as the compound, how does the melting point read?
Answer: Its melting point is 236 to 242 °C.

Question: With `Nc1nc2ccccc2c2c1nc(-c1ccccc1)n2CCCCNC(=O)c1ccc2ccccc2n1` as the compound, how does the melting point read?
Answer: The melting point was 81.1 to 83.9 °C.

Question: For `CC(Cl)c1nc2c(C(F)(F)F)cccc2c(O)c1C(=O)Nc1nccs1` (stereo not given), which melting point is on record?
Answer: Its melting point is 190 to 192 °C.

Question: Which melting point does the source give for `CC(=O)CC(=O)Nc1cccc(OC(=O)NC2CCCCC2)c1` here?
Answer: The melting point was 159 °C.

Question: With `CC(Oc1ccc(F)cc1F)(C(=O)Nc1nccs1)c1ccc(S(C)(=O)=O)cc1` (stereo not given) as the compound, how does the melting point read?
Answer: The melting point was 89 to 90 °C.

Question: With `CC1(Br)CCCNC1=O` (stereo not given) as the compound, how does the melting point read?
Answer: Its melting point is 107 to 109 °C.

Question: With `COc1cc(OC)nc(NC(=O)NS(=O)(=O)Nc2ccc(F)cc2C(=O)C2CC2)n1` as the compound, how does the melting point read?
Answer: The melting point was 76 to 78 °C.

Question: For `Cc1cc(C)cc(OC(=O)C(c2ccccc2)N2CCN(C3CCN(C(=O)c4cc(C(F)(F)F)cc(C(F)(F)F)c4)C(Cc4ccccc4)C3)CC2)c1` (stereo not given), which melting point is on record?
Answer: Its melting point is 88.1 °C.

Question: With `C=CCOC(=O)C(C(=O)OCC=C)=C1SC(O)C(O)S1` (stereo not given) as the compound, how does the melting point read?
Answer: Its melting point is 81.2 °C.

Question: Which melting point does the source give for `N#Cc1nn(-c2c(Cl)cccc2Cl)c(N)c1-c1ccco1` here?
Answer: The melting point was 223 °C.

Question: For `COc1nc(C)cnc1NS(=O)(=O)c1ccccc1I`, which melting point is on record?
Answer: Its melting point is 136 to 138 °C.

Question: For `FC(F)(F)Oc1ccc2[nH]c(-c3ccco3)nc2c1`, which melting point is on record?
Answer: Its melting point is 165 to 167 °C.

Question: For `CCOC(=O)c1sc2cc(OCc3ccccc3)ccc2c1Sc1ccccc1`, which melting point is on record?
Answer: Its melting point is 96 to 97 °C.

Question: Which melting point does the source give for `CCOC(=O)c1cc(C)n(-c2cccc(Cl)c2)c1-c1ccccc1` here?
Answer: Its melting point is 93.2 to 94.6 °C.

Question: Which melting point does the source give for `O=C(O)COc1cc(F)c(-c2ccccc2)cc1C(=S)NCc1cccc([N+](=O)[O-])c1` here?
Answer: The melting point was 177 to 179 °C.

Question: For `N#Cc1sc(C#N)c(Br)c1Br`, which melting point is on record?
Answer: Its melting point is 138 to 139 °C.

Question: For `O=[N+]([O-])c1c(NCCCO)cccc1NCCCO`, which melting point is on record?
Answer: Its melting point is 90 °C.

Question: With `COc1cccc(C(C)NC(=O)CCc2cnoc2-c2ccc(Cl)cc2)c1` (stereo not given) as the compound, how does the melting point read?
Answer: The melting point was 89 to 90 °C.

Question: With `Oc1cc(-c2c3ccccc3c(Br)c3sc4ccccc4c23)cc(Br)c1O` as the compound, how does the melting point read?
Answer: Its melting point is 212 to 213 °C.

Question: With `CCOC(=O)[C@H](C)NCC(=O)Nc1c2c(nc3ccccc13)CCCC2` as the compound, how does the melting point read?
Answer: The melting point was 101 to 102 °C.

Question: For `O=c1oc2ccc(-c3ccc(F)cc3F)cc2c(=O)n1-c1ccc(F)c(F)c1`, which melting point is on record?
Answer: The melting point was 193 to 194 °C.

Question: Which melting point does the source give for `Cc1nnc2n1-c1ccccc1C(c1ccc(Cl)cc1)=NC2NN(C(=O)NN)c1ccccc1` (stereo not given) here?
Answer: Its melting point is 175 to 177 °C.

Question: Which melting point does the source give for `COC(=O)c1cccc2cc(C)sc12` here?
Answer: Its melting point is 48 to 49 °C.

Question: For `NC(=O)COc1ccc(CCN2CCC(Nc3nc4ccccc4n3Cc3ccc(F)cc3)CC2)cc1`, which melting point is on record?
Answer: The melting point was 180 °C.

Question: For `CCC(=O)c1ccc(-c2cc(NC(=O)OC(C)(C)C)ccc2C)c(C)c1`, which melting point is on record?
Answer: Its melting point is 119 °C.

Question: With `CC(C)(C)OC(=O)NCCCCCNC1(c2ccccc2Cl)C(=O)Nc2ccc(Cl)cc21` (stereo not given) as the compound, how does the melting point read?
Answer: The melting point was 185 °C.

Question: With `COCCOc1cc2ncnc(NC3=CC(=O)C4(Cc5ccccc5)OC4C3=O)c2cc1OC` (stereo not given) as the compound, how does the melting point read?
Answer: The melting point was 104 to 108 °C.

Question: Which melting point does the source give for `CC(C)(C)c1ccc(CCOc2ncnc3cnccc23)cc1` here?
Answer: The melting point was 59 to 60 °C.

Question: Which melting point does the source give for `O=[N+]([O-])c1cc(F)ccc1N1CCc2ccccc21` here?
Answer: The melting point was 87 to 89 °C.

Question: For `NC1=NC(c2ccccc2)=NCC1(N)N=O` (stereo not given), which melting point is on record?
Answer: Its melting point is 243 to 244 °C.

Question: For `N#Cc1cccc(C(=O)Nc2c(Cl)cncc2Cl)c1`, which melting point is on record?
Answer: Its melting point is 242 to 244 °C.

Question: Which melting point does the source give for `Cc1nn(CC(O)c2ccc(Cl)cc2)c(=O)n1-c1ccc(N2CCN(c3ncc(O)cn3)CC2)cc1` (stereo not given) here?
Answer: Its melting point is 244 °C.

Question: For `COc1c(O)cnc(C)c1C`, which melting point is on record?
Answer: The melting point was 274 to 276 °C.

Question: For `CC(C)(C)OC(=O)N1CCN(c2cccc([N+](=O)[O-])c2)C(=O)C1`, which melting point is on record?
Answer: Its melting point is 122 to 123 °C.
